{"source": "the NIST ThermoML archive (doi:10.1021/je400029t)", "key": {"[1]": {"test": "Molar enthalpy of transition or fusion", "conditions": "Crystal; DSC"}, "[2]": {"conditions": "Crystal; DTA"}}, "note": "Numbers after ± are expanded uncertainties."}
{"smiles": "COc1ccc(C(=O)O)cc1OC", "note": "[3,4-dimethoxybenzoic acid]", "values": [{"measurement": "Molar enthalpy of transition or fusion", "setting": "[1]", "result": "29.6 ± 1.3", "unit": "kJ/mol"}, {"measurement": "Normal melting temperature", "setting": "[2]", "result": "179.97 ± 0.53", "unit": "°C"}]}
